A short description of data set [1]: Molecular charge and RP-HPLC hydrophobicity of polymers. The following applies: HPLC-RP gradient mobile phase. It is filed as physicochemical. An excerpt:
Briefly, the polymers were synthesized while applying the Fmoc active ester chemistry on a fully automated, programmable peptide synthesizer (Applied Biosystems 433A). After cleavage from the resin, the crude product was extracted with 30% acetonitrile in water and purified by RP-HPLC (Alliance Waters), so as to obtain a chromatographic homogeneity higher than 95%. HPLC runs were typically performed on C18 columns (Vydac, 250 mm×4.6 or 10 mm) using a linear gradient of acetonitrile in water (1% per minute), both solvents containing 0.1% trifluoroacetic acid. The purified polymers were subjected to mass spectrometry (ZQ Waters) and NMR analyses to confirm their composition, and stored as a lyophilized powder at −20° C. Prior to being tested, fresh solutions were prepared in water, vortexed, sonicated, centrifuged and then diluted in the appropriate medium.
“Q” represents the overall molecular charge at physiological pH; “ACN (%)” represents the percent of acetonitrile in the HPLC-RP gradient mobile phase at which the polymer was eluted and which corresponds to the estimated hydrophobicity of the polymer. The column headed by “Ref.” indicates prior reference of the OAK if present, wherein a number in parentheses “(##)” corresponds to the SEQ ID NO in U.S. Pat. No. 7,504,381; the letter “R” indicates a polymer published in Radzishevsky I. S. et al. (2008), Chem. Biol., 15(4), pp. 354-362; and “New” indicates a novel polymer disclosed herein.

For another data set, the system named is E. coli. It is filed as cell-based. The method, then: (§1) All bacteria were cultured in Luria-Bertani (LB) medium (10 g/l tryptone, 5 g/l yeast extract, 5 g/l NaCl, pH 7.4).
(§2) Bacteria were grown overnight in LB growth medium and diluted 10,000-fold in same medium.
(§3) Inhibition of proliferation was determined by optical density measurements (620 nm) after incubation overnight at 37° C.

A further data set concerns A. aureus. It is filed as cell-based. The method, then:
as §1, §2, §3

Data set [2] in a line: Cochleate formation by light microscopy. It is filed as physicochemical. More on the design: key: or above (E!); excellent (E); good (G); poor (P); none (N). The protocol:
Lipid films containing binary mixtures of lipids were made from aliquots of stock solutions in chloroform:methanol (2:1). The solvent was evaporated with a stream of nitrogen gas and the lipids deposited as a film on the walls of a glass tube. The tubes were then placed in a vacuum dessicator for 3 hours. The films were kept under Argon at −20° C. The lipid films were hydrated with buffer solutions of OAK polymers with extensive vortexing, so as to have a lipid to polymer molar ratio of […].
Hydrated films were subjected to freeze thawing three times before imaging, to ensure proper equilibration of OAK with the multilamellar vesicles. A drop of this mixture was placed on a glass slide and covered with a glass coverslip. Light microscopy was carried out at room temperature using a Zeiss Axiovert 100M microscope with a Plan-Neofluar 100×/1.3 oil immersion objective. Images were analyzed with the Zeiss LSM image browser v2.8.
The morphology of the samples of different OAKs and different lipid mixtures could be classified into the following categories.
Table 5 presents the results of cochleate formation with different lipid mixtures of 1:10 lipid to polymer ratio, and a series of OAK polymers, indicated by their alternative denotations and SED ID Nos in parentheses. “Tm” denotes the melting temperature of the lipid bilayer afforded by the given lipid mixture. Some selected samples were further analyzed to confirm the results with freeze fracture electron microscopy for, as indicated in Table 5. Cochleate formation is defined as excellent (E) or above (E!), good (G), poor (P), or none (N) based on the aforementioned comparison, as well as on the abundance of cochleate structures observed in the light microscopy images. Lipid mixtures having a number in parenthesis are samples for which freeze-fracture electron microscopy analysis was conducted. Lipid mixtures having a “+” sign next to the number in parenthesis are samples which were confirmed by freeze-fracture electron microscopy as forming large cochleates with few vesicles and no inverted micellar (HII) morphology (samples 2, 3 and 5), or smaller cochleate structures mixed with other morphologies (samples 0 and 4). Lipid mixtures which contain only anionic lipids are marked with “^A”. Sample 0 is the lipid/OAK system used and presented in Example 1 hereinabove.

[3] abbreviates: DMPE:TOCL75:25, 10:1 lipid to polymer ratio (Table 6).
Setting [4] is: POPE:TOCL 75:25, 10:1 lipid to polymer ratio (Table 6).
Setting [5] is: DMPC:TOCL 75:25, 1:10 lipid to polymer ratio.
The mark [6] stands for this setting: DMPE:DOPG 75:25, 1:10 lipid to polymer ratio.
Where [7] appears, read: DMPE:TOCL 75:25, 1:10 lipid to polymer ratio.
Setting [8] is: DMPG:TOCL 75:25 (anionic lipids only), 1:10 lipid to polymer ratio.
[9] abbreviates: DOPE:TOCL 75:25, 1:10 lipid to polymer ratio.
[10] abbreviates: DPPE:TOCL 75:25, 1:10 lipid to polymer ratio.
Where [11] appears, read: POPC:TOCL 75:25, 1:10 lipid to polymer ratio.
The mark [12] stands for this setting: POPE:DOPG 75:25, 1:10 lipid to polymer ratio.
Where [13] appears, read: POPE:DOPG:TOCL 80:15:5, 1:10 lipid to polymer ratio.
[14] abbreviates: POPE:TOCL 75:25, 1:10 lipid to polymer ratio.
Where [15] appears, read: POPG:TOCL 75:25 (anionic lipids only), 1:10 lipid to polymer ratio.

Converted amounts (≈) assume the structure as drawn.

Take `CCCCCCCCCCCC(=O)N[C@@H](CCCCN)C(=O)NCCCCCCCCCCCC(=O)N[C@@H](CCCCN)C(=O)NCCCCCCCCCCCC(=O)N[C@@H](CCCCN)C(=O)NCCCCCCCCCCCC(=O)N[C@@H](CCCCN)C(=O)NCCCCCCCCCCCC(=O)N[C@@H](CCCCN)C(=O)NCCCCCCCCCCCC(=O)N[C@@H](CCCCN)C(=O)NCCCCCCCCCCCC(=O)N[C@@H](CCCCN)C(=O)NCCCCCCCCCCCC(=O)N[C@@H](CCCCN)C(N)=O` [C12K-7α12, C12K(NC12K)7NH2]: in data set [1], the “ACN (%) (percent acetonitrile at elution, estimated hydrophobicity)” value is 55.2%. Further, the “MIC E. coli” value against E. coli is over 50 µM. The “MIC A. aureus” value with A. aureus is over 50 µM. Further, the Cochleate formation result in data set [2] (setting [3]) was “P”; in data set [2] (setting [4]), “N”.
For the molecule `CCCCCCCCCCCC(=O)N[C@@H](CCCCN)C(=O)NCCCCCCCC(=O)N[C@@H](CCCCN)C(=O)NCCCCCCCC(=O)N[C@@H](CCCCN)C(=O)NCCCCCCCC(=O)N[C@@H](CCCCN)C(=O)NCCCCCCCC(=O)N[C@@H](CCCCN)C(=O)NCCCCCCCC(=O)N[C@@H](CCCCN)C(N)=O` [C12K-5α8, C12K(NC8K)5NH2], the “ACN (%) (percent acetonitrile at elution, estimated hydrophobicity)” value in data set [1] was 49.7%. For the same molecule, the “MIC E. coli” value in the data set with E. coli stood at 3.1 µM (≈ 5.19 µg/mL). For the same molecule, the “MIC A. aureus” value against A. aureus came to 50 µM (≈ 83.7 µg/mL). Further, the Cochleate formation entry is recorded as “N” in data set [2] (setting [5]); “E” in data set [2] (setting [6]); “P” in data set [2] (setting [7]); “G” in data set [2] (setting [8]); “N” in data set [2] (setting [9]); “E” in data set [2] (setting [10]). The Cochleate formation entry in data set [2] (setting [11]) is recorded as “P”; in data set [2] (setting [12]), “G”; in data set [2] (setting [13]), “N”; in data set [2] (setting [14]) it was “G”; in data set [2] (setting [15]), “P”.
For the molecule `CCCCCCCCCCCC(=O)NC(CCCCN)C(=O)NCCCCCCCC(=O)NC(CCCCN)C(=O)NCCCCCCCC(=O)NC(CCCCN)C(=O)NCCCCCCCC(=O)NC(CCCCN)C(=O)NCCCCCCCC(=O)NC(CCCCN)C(=O)NCCCCCCCC(=O)NC(CCCCN)C(=O)NCCCCCCCC(=O)NC(CCCCN)C(=O)NCCCCCCCC(=O)NC(CCCCN)C(=O)NCCCCCCCC(=O)NC(CCCCN)C(N)=O` (stereo not drawn) [C12K-8α8, C12K(NC8K)8NH2], the “ACN (%) (percent acetonitrile at elution, estimated hydrophobicity)” value in data set [1] is 48.5%. The “MIC E. coli” value in the data set with E. coli is 3.1 µM (≈ 7.7 µg/mL). Also, the “MIC A. aureus” value against A. aureus is over 50 µM. The Cochleate formation result is listed as “G” in data set [2] (setting [6]); “E” in data set [2] (setting [7]); “G” in data set [2] (setting [9]); “E” in data set [2] (setting [10]); “N” in data set [2] (setting [12]); “N” in data set [2] (setting [13]). Moreover, the Cochleate formation entry in data set [2] (setting [14]) is recorded as “G”.
For `CCCCCCCCCCCC(=O)NC(CCCCN)C(=O)NCCCCCCCC(=O)NC(CCCCN)C(=O)NCCCCCCCC(=O)NC(CCCCN)C(=O)NCCCCCCCC(=O)NC(CCCCN)C(=O)NCCCCCCCC(=O)NC(CCCCN)C(=O)NCCCCCCCC(=O)NC(CCCCN)C(=O)NCCCCCCCC(=O)NC(CCCCN)C(=O)NCCCCCCCC(=O)NC(CCCCN)C(=O)NCCCCCCCC(=O)NC(CCCCN)C(=O)NCCCCCCCC(=O)NC(CCCCN)C(N)=O` (stereo not drawn) [C12K-9α8, C12K(NC8K)9NH2], the “ACN (%) (percent acetonitrile at elution, estimated hydrophobicity)” value in data set [1] is recorded as 48.4%. The “MIC E. coli” value against E. coli stood at 6.25 µM (≈ 17.2 µg/mL). For the same molecule, the “MIC A. aureus” value against A. aureus was over 50 µM. The Cochleate formation result is reported as “N” in data set [2] (setting [5]); “E!” in data set [2] (setting [6]); “E” in data set [2] (setting [7]); “N” in data set [2] (setting [8]); “G” in data set [2] (setting [9]); “E” in data set [2] (setting [10]). In addition, the Cochleate formation entry is given as “N” in data set [2] (setting [11]), “G” in data set [2] (setting [12]), “G” in data set [2] (setting [14]) and “P” in data set [2] (setting [15]).
In the case of `CCCCCCCCCCCC(=O)N[C@@H](CCCCN)C(=O)NCCCCCCCC(=O)N[C@@H](CCCCN)C(=O)NCCCCCCCC(=O)N[C@@H](CCCCN)C(=O)NCCCCCCCC(=O)N[C@@H](CCCCN)C(=O)NCCCCCCCC(=O)N[C@@H](CCCCN)C(=O)NCCCCCCCC(=O)N[C@@H](CCCCN)C(=O)NCCCCCCCC(=O)N[C@@H](CCCCN)C(N)=O` [C12K-6α8, C12K(NC8K)6NH2], the “ACN (%) (percent acetonitrile at elution, estimated hydrophobicity)” value in data set [1] was 50%. Also, the “MIC E. coli” value in the data set on E. coli is 3.1 µM (≈ 6.03 µg/mL). For the same molecule, the “MIC A. aureus” value in the data set with A. aureus came out at 50 µM (≈ 97.2 µg/mL). Further, the Cochleate formation result in data set [2] (setting [6]) and in data set [2] (setting [14]) was “G” in each case.
With `CCCCCCCCCCCC(=O)NC(CCCCN)C(=O)NCCCCCCCC(=O)NC(CCCCN)C(=O)NCCCCCCCC(=O)NC(CCCCN)C(=O)NCCCCCCCC(=O)NC(CCCCN)C(=O)NCCCCCCCC(=O)NC(CCCCN)C(=O)NCCCCCCCC(=O)NC(CCCCN)C(=O)NCCCCCCCC(=O)NC(CCCCN)C(=O)NCCCCCCCC(=O)NC(CCCCN)C(=O)NCCCCCCCC(=O)NC(CCCCN)C(=O)NCCCCCCCC(=O)NC(CCCCN)C(=O)NCCCCCCCC(=O)NC(CCCCN)C(=O)NCCCCCCCC(=O)NC(CCCCN)C(N)=O` (stereo not drawn) [C12K-11α8, C12K(NC8K)11NH2], the “ACN (%) (percent acetonitrile at elution, estimated hydrophobicity)” value in data set [1] was 42.2%. In addition, the “MIC E. coli” value in the data set with E. coli was 3.1 µM (≈ 10.2 µg/mL). In addition, in the data set on A. aureus, the “MIC A. aureus” value was over 50 µM. The Cochleate formation result is listed as “E” in data set [2] (setting [6]); “G” in data set [2] (setting [7]); “G” in data set [2] (setting [9]); “P” in data set [2] (setting [10]); “P” in data set [2] (setting [11]); “P” in data set [2] (setting [12]). Besides, the Cochleate formation entry in data set [2] (setting [14]) is “G”; in data set [2] (setting [15]), “N”.
For the molecule `CCCCCCCCCCCC(=O)N[C@@H](CCCCN)C(=O)NCCCC(=O)N[C@@H](CCCCN)C(=O)NCCCC(=O)N[C@@H](CCCCN)C(=O)NCCCC(=O)N[C@@H](CCCCN)C(=O)NCCCC(=O)N[C@@H](CCCCN)C(=O)NCCCC(=O)N[C@@H](CCCCN)C(=O)NCCCC(=O)N[C@@H](CCCCN)C(=O)NCCCC(=O)N[C@@H](CCCCN)C(N)=O` [C12K-7α4, C12K(NC4K)7NH2], the “ACN (%) (percent acetonitrile at elution, estimated hydrophobicity)” value in data set [1] is listed as 45.2%. The “MIC E. coli” value with E. coli was found to be 12.5 µM (≈ 22.8 µg/mL). Moreover, the “MIC A. aureus” value against A. aureus was over 50 µM. Further, the Cochleate formation entry is on record as “G” in data set [2] (setting [3]) and “G-E” in data set [2] (setting [4]).
The matching figures for `NCCCCCCCCCCCC(=O)NC(CCCCN)C(=O)NCCCCCCCC(=O)NC(CCCCN)C(=O)NCCCCCCCC(=O)NC(CCCCN)C(=O)NCCCCCCCC(=O)NC(CCCCN)C(=O)NCCCCCCCC(=O)NC(CCCCN)C(=O)NCCCCCCCC(=O)NC(CCCCN)C(=O)NCCCCCCCC(=O)NC(CCCCN)C(=O)NCCCCCCCC(=O)NC(CCCCN)C(N)=O` (stereo not drawn) [α12-7α8, NC12K(NC8K)7NH2]: 36.9%, 12.5 µM (≈ 27.9 µg/mL), 50 µM (≈ 111 µg/mL), “E” and “G-E”.

The values above are taken from patent US8951563B2, “Antibiotic drug delivery and potentiation” (Technion Research & Development Foundation Limited, priority 2009, dated 2015).
